Data taken from the supplement of paper PMC7285287.
Counter-ions that a name gives are not always drawn. ± gives the standard deviation of the averaged measurements.

Test system: Candida albicans SNY425 biofilm
Assay: biofilm OD600 relative to DMSO control (fraction of DMSO control); higher = more biofilm (less inhibition)
Description: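 C. albicans SNY425 biofilm optical density assays (OD600 of the adhered biofilm after media removal) in RPMI-MOPS pH 7.0 at 37 °C with shaking. Groups of 4 to 8 wells per compound are averaged and normalised to the average of DMSO loading control wells. Adherence inhibition was tested at 10 and 40 µM, sustained inhibition and disruption at 40 µM, and the MBIC series at 200 to 0.78 µM.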

[1] = 0.78 µM, assay detail: sustained inhibition (MBIC series), 384-well, compound during adherence and 24 h growth
[2] = 3.125 µM, assay detail: sustained inhibition (MBIC series), 384-well, compound during adherence and 24 h growth
[3] = 10 µM, assay detail: adherence inhibition, 96-well, compound during 90 min adherence only
[4] = 12.5 µM, assay detail: sustained inhibition (MBIC series), 384-well, compound during adherence and 24 h growth
[5] = 40 µM, assay detail: adherence inhibition, 96-well, compound during 90 min adherence only
[6] = 40 µM, assay detail: disruption, 384-well, compound added to 24 h mature biofilm for further 24 h
[7] = 40 µM, assay detail: sustained inhibition, 384-well, compound during adherence and 24 h growth
[8] = 50 µM, assay detail: sustained inhibition (MBIC series), 384-well, compound during adherence and 24 h growth
[9] = 200 µM, assay detail: sustained inhibition (MBIC series), 384-well, compound during adherence and 24 h growth

SMILES: CCCCCCCCCCCCCCCCOP(=O)([O-])OCC[N+](C)(C)C [miltefosine]
- biofilm OD600 [1]: 0.9
- biofilm OD600 [2]: 0.9
- biofilm OD600 [3]: 0.99
- biofilm OD600 [4]: 1.08
- biofilm OD600 [5]: 0.844
- biofilm OD600 [6]: 1.09 ± 0.035
- biofilm OD600 [7]: 0.222 ± 0.015
- biofilm OD600 [8]: 0.298
- biofilm OD600 [9]: 0.259

SMILES: CC[C@H]1OC(=O)[C@H](C)[C@@H](O[C@H]2C[C@@](C)(OC)[C@@H](O)[C@H](C)O2)[C@H](C)[C@@H](O[C@@H]2O[C@H](C)C[C@H](N(C)C)[C@H]2O)[C@](C)(O)C[C@@H](C)C(=O)[C@H](C)[C@@H](O)[C@]1(C)O [erythromycin]
- biofilm OD600 [3]: 0.879
- biofilm OD600 [5]: 0.874
- biofilm OD600 [6]: 1.03 ± 0.026
- biofilm OD600 [7]: 1.03 ± 0.017

SMILES: CCN(CC)C(=S)SSC(=S)N(CC)CC [disulfiram]
- biofilm OD600 [1]: 0.958
- biofilm OD600 [2]: 1
- biofilm OD600 [3]: 0.991
- biofilm OD600 [4]: 1
- biofilm OD600 [5]: 0.857
- biofilm OD600 [6]: 0.999 ± 0.012
- biofilm OD600 [7]: 0.76 ± 0.084
- biofilm OD600 [8]: 0.764
- biofilm OD600 [9]: 0.417

SMILES: O=c1[nH]c(=O)n([C@H]2C[C@H](O)[C@@H](CO)O2)cc1F [floxuridine]
- biofilm OD600 [3]: 1.02
- biofilm OD600 [5]: 0.967
- biofilm OD600 [6]: 0.969 ± 0.017
- biofilm OD600 [7]: 0.927 ± 0.025

SMILES: Cc1c(OCC(F)(F)F)ccnc1C[S@@+]([O-])c1nc2ccccc2[nH]1 [dexlansoprazole]
- biofilm OD600 [1]: 0.981
- biofilm OD600 [2]: 0.887
- biofilm OD600 [3]: 0.925
- biofilm OD600 [4]: 0.833
- biofilm OD600 [5]: 0.837
- biofilm OD600 [6]: 1.01 ± 0.024
- biofilm OD600 [7]: 0.7 ± 0.091
- biofilm OD600 [8]: 0.643
- biofilm OD600 [9]: 0.625

SMILES: Nc1nc(=O)[nH]cc1F [flucytosine]
- biofilm OD600 [1]: 0.866
- biofilm OD600 [2]: 0.873
- biofilm OD600 [3]: 0.907
- biofilm OD600 [4]: 0.862
- biofilm OD600 [5]: 0.776
- biofilm OD600 [6]: 0.983 ± 0.06
- biofilm OD600 [7]: 0.798 ± 0.066
- biofilm OD600 [8]: 0.758
- biofilm OD600 [9]: 0.719

SMILES: NC(=O)NC(=O)Cc1ccccc1 [phenacemide]
- biofilm OD600 [3]: 1.05
- biofilm OD600 [5]: 0.929
- biofilm OD600 [6]: 1.015 ± 0.0049
- biofilm OD600 [7]: 1.02 ± 0.065

SMILES: CC(C)[C@H](N)C(=O)OCCOCn1cnc2c(=O)nc(N)[nH]c21 [valacyclovir hydrochloride]
- biofilm OD600 [3]: 1.1
- biofilm OD600 [5]: 0.844
- biofilm OD600 [6]: 1 ± 0.024
- biofilm OD600 [7]: 0.982 ± 0.047
